Our source for the IC50 values is patent publication US20230181556A1, “USE OF PSYCHOTROPIC DRUGS FOR THE TREATMENT OF CORONAVIRUS INFECTIONS” (priority 2020, published 2023).

In the assay the test system is SARS-CoV-2 clinical isolates D614G. The assay is classed as cell-based.

As to `CC(CN1c2ccccc2Sc2ccccc21)N(C)C` (centres unmarked) [Promethazine], the IC50 (in general, the concentration needed to halve the response being measured) turned out to be 9.22 µM.

`CN1CCCC(n2nc(Cc3ccc(Cl)cc3)c3ccccc3c2=O)CC1` (centres unmarked) [Azelastine] returned an IC50 of 5.75 µM.
